DBAASP
Converted amounts (≈) assume the structure as drawn.

Columns and labels:
Test in all cases: ≥ marks a high value that may be exact or a test limit, other limits are often not marked, values filed in µg/mL are converted to µM
Candida albicans = test system: Candida albicans
[1] = test system: Pseudomonas aeruginosa ATCC 27853
[2] = test system: Staphylococcus aureus ATCC 49476
Staphylococcus aureus MR = test system: Staphylococcus aureus MR
Escherichia coli BL21 = test system: Escherichia coli BL21
[3] = test system: Pseudomonas aeruginosa PAO1
[4] = test system: Streptococcus pyogenes M1T1 5448
Bacillus subtilis 168 = test system: Bacillus subtilis 168
[5] = test system: Staphylococcus aureus USA 300

MIC (Candida albicans)	MIC [1]	MIC [2]	MIC (Staphylococcus aureus MR)	MIC (Escherichia coli BL21)	MIC [3]	MIC [4]	MIC (Bacillus subtilis 168)	MIC [5]	SMILES
42.3 µM (≈ 128 µg/mL)	> 169 µM	≥ 169 µM	≥ 169 µM	–	–	–	–	–	CC[C@H](C)[C@H](NC(=O)[C@H](CC(C)C)NC(=O)[C@H](CCCN=C(N)N)NC(=O)[C@H](Cc1cnc[nH]1)NC(=O)[C@H](CCCN=C(N)N)NC(=O)[C@H](C)NC(=O)[C@H](CCCCN)NC(=O)CNC(=O)[C@H](C)NC(=O)[C@H](CO)NC(=O)[C@H](Cc1ccccc1)NC(=O)[C@H](CC(C)C)NC(=O)CNC(=O)CNC(=O)[C@@H](NC(=O)[C@@H](NC(=O)[C@H](Cc1cnc[nH]1)NC(=O)[C@H](Cc1cnc[nH]1)NC(=O)[C@@H](NC(=O)[C@@H](N)Cc1ccccc1)[C@@H](C)CC)[C@@H](C)CC)[C@@H](C)CC)C(=O)N[C@@H](CCCN=C(N)N)C(=O)N[C@@H](CCCN=C(N)N)C(=O)N[C@@H](CCCN=C(N)N)C(=O)N[C@@H](CCCN=C(N)N)C(=O)N[C@@H](CCCN=C(N)N)C(=O)O [FIHHIIGGLFSAGKARHRLIRRRRR]
26.2 µM (≈ 64 µg/mL)	105 µM (≈ 256 µg/mL)	≥ 52.3 µM	26.2 µM (≈ 64 µg/mL)	–	–	–	–	–	CC[C@H](C)[C@H](N)C(=O)N[C@H](C(=O)NCC(=O)NCC(=O)N[C@@H](CC(C)C)C(=O)N[C@@H](Cc1ccccc1)C(=O)N[C@@H](CO)C(=O)N[C@@H](C)C(=O)NCC(=O)N[C@@H](CCCCN)C(=O)N[C@@H](C)C(=O)N[C@H](C(=O)N[C@@H](Cc1cnc[nH]1)C(=O)N[C@@H](CCCN=C(N)N)C(=O)N[C@@H](CC(C)C)C(=O)N[C@H](C(=O)N[C@@H](CCCN=C(N)N)C(=O)N[C@@H](CCCN=C(N)N)C(=O)N[C@@H](CCCN=C(N)N)C(=O)N[C@@H](CCCN=C(N)N)C(=O)N[C@@H](CCCN=C(N)N)C(=O)O)[C@@H](C)CC)[C@@H](C)CC)[C@@H](C)CC [IIGGLFSAGKAIHRLIRRRRR]
–	–	–	–	2 µM (≈ 6.25 µg/mL)	8 µM (≈ 25 µg/mL)	2 µM (≈ 6.25 µg/mL)	–	–	CC[C@H](C)[C@H](NC(=O)[C@H](CCCN=C(N)N)NC(=O)[C@H](CCC(N)=O)NC(=O)[C@@H](NC(=O)[C@H](Cc1c[nH]c2ccccc12)NC(=O)[C@H](C)N)[C@@H](C)O)C(=O)N[C@@H](CCCCN)C(=O)N[C@@H](C)C(=O)N[C@@H](Cc1ccc(O)cc1)C(=O)N[C@@H](CC(C)C)C(=O)N[C@@H](CCCN=C(N)N)C(=O)N[C@@H](CCCN=C(N)N)C(=O)N[C@@H](CCC(=O)O)C(=O)N[C@H](C(=O)N[C@@H](CCCN=C(N)N)C(=O)N[C@@H](CCCCN)C(=O)N[C@@H](CCCN=C(N)N)C(=O)NCC(=O)N[C@@H](CCCN=C(N)N)C(=O)N[C@@H](CCCCN)C(=O)N[C@@H](C)C(=O)N[C@H](C(=O)N[C@H](C(=O)N[C@@H](C)C(=O)N[C@@H](Cc1c[nH]c2ccccc12)C(=O)O)[C@@H](C)CC)C(C)C)[C@@H](C)CC [AWTQRIKAYLRREIRKRGRKAVIAW]
–	–	–	–	–	–	–	3.2 µM (≈ 7.35 µg/mL)	–	CC[C@H](C)[C@H](NC(=O)[C@H](CCCCN)NC(=O)[C@H](CC(C)C)NC(=O)[C@H](Cc1ccccc1)NC(=O)[C@H](CCCCN)NC(=O)[C@H](CCCCN)NC(=O)[C@H](Cc1ccccc1)NC(=O)[C@H](C)NC(=O)[C@H](CCCCN)NC(=O)[C@H](CCCCN)NC(=O)[C@H](Cc1ccccc1)NC(=O)[C@H](CC(C)C)NC(=O)[C@H](CCCCN)NC(=O)[C@H](Cc1c[nH]c2ccccc12)NC(=O)[C@H](CCCCN)NC(=O)CN)C(=O)N[C@@H](CC(C)C)C(=O)N[C@@H](C)C(=O)N[C@@H](CS)C(=O)O [GKWKLFKKAFKKFLKILAC]
–	–	–	–	2 µM (≈ 6.23 µg/mL)	8 µM (≈ 24.9 µg/mL)	0.5 µM (≈ 1.56 µg/mL)	–	–	CC[C@H](C)[C@H](NC(=O)[C@H](CCCN=C(N)N)NC(=O)[C@H](CCC(N)=O)NC(=O)[C@@H](NC(=O)CNC(=O)[C@@H](N)Cc1c[nH]c2ccccc12)[C@@H](C)O)C(=O)N[C@@H](CCCCN)C(=O)N[C@@H](C)C(=O)N[C@@H](Cc1ccc(O)cc1)C(=O)N[C@@H](CC(C)C)C(=O)N[C@@H](CCCN=C(N)N)C(=O)N[C@@H](CCCN=C(N)N)C(=O)N[C@@H](CCC(=O)O)C(=O)N[C@H](C(=O)N[C@@H](CCCN=C(N)N)C(=O)N[C@@H](CCCCN)C(=O)N[C@@H](CCCN=C(N)N)C(=O)NCC(=O)N[C@@H](CCCN=C(N)N)C(=O)N[C@@H](CCCCN)C(=O)N[C@@H](C)C(=O)N[C@H](C(=O)N[C@H](C(=O)N[C@@H](C)C(=O)N[C@@H](Cc1c[nH]c2ccccc12)C(=O)O)[C@@H](C)CC)C(C)C)[C@@H](C)CC [WGTQRIKAYLRREIRKRGRKAVIAW]
43.5 µM (≈ 128 µg/mL)	87.1 µM (≈ 256 µg/mL)	21.8 µM (≈ 64 µg/mL)	21.8 µM (≈ 64 µg/mL)	–	–	–	–	–	CC[C@H](C)[C@H](NC(=O)[C@H](CC(C)C)NC(=O)[C@H](CCCN=C(N)N)NC(=O)[C@H](Cc1cnc[nH]1)NC(=O)[C@H](C)NC(=O)[C@H](C)NC(=O)[C@H](CCCCN)NC(=O)CNC(=O)[C@H](C)NC(=O)[C@H](CO)NC(=O)[C@H](Cc1ccccc1)NC(=O)[C@H](CC(C)C)NC(=O)CNC(=O)CNC(=O)[C@@H](NC(=O)[C@@H](NC(=O)[C@H](Cc1cnc[nH]1)NC(=O)[C@H](Cc1cnc[nH]1)NC(=O)[C@@H](NC(=O)[C@@H](N)Cc1ccccc1)[C@@H](C)CC)[C@@H](C)CC)[C@@H](C)CC)C(=O)N[C@@H](CCCN=C(N)N)C(=O)N[C@@H](CCCN=C(N)N)C(=O)N[C@@H](CCCN=C(N)N)C(=O)N[C@@H](CCCN=C(N)N)C(=O)N[C@@H](CCCN=C(N)N)C(=O)O [FIHHIIGGLFSAGKAAHRLIRRRRR]
–	–	–	–	1 µM (≈ 3.08 µg/mL)	16 µM (≈ 49.3 µg/mL)	2 µM (≈ 6.17 µg/mL)	–	–	CC[C@H](C)[C@H](NC(=O)[C@H](CCCN=C(N)N)NC(=O)[C@H](C)NC(=O)[C@H](CCCCN)NC(=O)[C@H](CCCN=C(N)N)NC(=O)CNC(=O)[C@@H](NC(=O)[C@H](CCCCN)NC(=O)[C@H](CCCN=C(N)N)NC(=O)[C@@H](NC(=O)[C@H](CCC(=O)O)NC(=O)[C@H](CCCN=C(N)N)NC(=O)[C@H](CCCN=C(N)N)NC(=O)[C@H](CC(C)C)NC(=O)[C@H](Cc1ccc(O)cc1)NC(=O)[C@H](C)NC(=O)[C@H](CCCCN)NC(=O)[C@@H](NC(=O)[C@H](Cc1c[nH]c2ccccc12)NC(=O)[C@H](CCC(N)=O)NC(=O)[C@H](CCCN=C(N)N)NC(=O)CNC(=O)[C@H](C)N)[C@@H](C)CC)[C@@H](C)CC)C(C)C)C(=O)N[C@@H](C)C(=O)N[C@@H](Cc1c[nH]c2ccccc12)C(=O)O [AGRQWIKAYLRREIRKVGRKARIAW]
–	–	–	–	1 µM (≈ 2.96 µg/mL)	64 µM (≈ 189 µg/mL)	0.25 µM (≈ 0.739 µg/mL)	–	8 µM (≈ 23.7 µg/mL)	CC[C@H](C)[C@H](NC(=O)[C@H](CCCCN)NC(=O)[C@H](CCCCN)NC(=O)CNC(=O)[C@H](CCC(=O)O)NC(=O)[C@H](CCC(N)=O)NC(=O)[C@@H](NC(=O)[C@H](CCCCN)NC(=O)[C@H](CCCCN)NC(=O)[C@H](CCCCN)NC(=O)[C@H](CC(C)C)NC(=O)[C@H](CCCN=C(N)N)NC(=O)[C@H](CCC(N)=O)NC(=O)[C@H](Cc1ccccc1)NC(=O)[C@@H](NC(=O)[C@H](CCCCN)NC(=O)[C@H](CCC(=O)O)NC(=O)[C@@H](NC(=O)CNC(=O)[C@H](C)N)[C@@H](C)O)[C@@H](C)CC)[C@@H](C)CC)C(=O)N[C@@H](C)C(=O)N[C@@H](CCCCN)C(=O)N[C@@H](CCCN=C(N)N)C(=O)N[C@@H](C)C(=O)N[C@@H](Cc1c[nH]c2ccccc12)C(=O)O [AGTEKIFQRLKKKIQEGKKIAKRAW]
44.2 µM (≈ 128 µg/mL)	177 µM (≈ 512 µg/mL)	≥ 177 µM	≥ 177 µM	–	–	–	–	–	CC[C@H](C)[C@H](NC(=O)[C@H](C)NC(=O)[C@H](CCCCN)NC(=O)CNC(=O)[C@H](C)NC(=O)[C@H](CO)NC(=O)[C@H](Cc1ccccc1)NC(=O)[C@H](CC(C)C)NC(=O)CNC(=O)CNC(=O)[C@H](C)NC(=O)[C@H](C)NC(=O)[C@H](Cc1cnc[nH]1)NC(=O)[C@H](Cc1cnc[nH]1)NC(=O)[C@@H](NC(=O)[C@@H](N)Cc1ccccc1)[C@@H](C)CC)C(=O)N[C@@H](Cc1cnc[nH]1)C(=O)N[C@@H](CCCN=C(N)N)C(=O)N[C@@H](CC(C)C)C(=O)N[C@H](C(=O)N[C@@H](CCCN=C(N)N)C(=O)N[C@@H](CCCN=C(N)N)C(=O)N[C@@H](CCCN=C(N)N)C(=O)N[C@@H](CCCN=C(N)N)C(=O)N[C@@H](CCCN=C(N)N)C(=O)O)[C@@H](C)CC [FIHHAAGGLFSAGKAIHRLIRRRRR]
–	–	–	–	1 µM (≈ 3.08 µg/mL)	2 µM (≈ 6.17 µg/mL)	2 µM (≈ 6.17 µg/mL)	–	–	CC[C@H](C)[C@H](NC(=O)[C@H](CCCN=C(N)N)NC(=O)[C@H](CCC(N)=O)NC(=O)[C@H](Cc1c[nH]c2ccccc12)NC(=O)CNC(=O)[C@H](C)N)C(=O)N[C@@H](CCCCN)C(=O)N[C@@H](C)C(=O)N[C@@H](Cc1ccc(O)cc1)C(=O)N[C@@H](CC(C)C)C(=O)N[C@@H](CCCN=C(N)N)C(=O)N[C@@H](CCCN=C(N)N)C(=O)N[C@@H](CCC(=O)O)C(=O)N[C@H](C(=O)N[C@@H](CCCN=C(N)N)C(=O)N[C@@H](CCCCN)C(=O)N[C@@H](CCCN=C(N)N)C(=O)NCC(=O)N[C@@H](CCCN=C(N)N)C(=O)N[C@@H](CCCCN)C(=O)N[C@@H](C)C(=O)N[C@H](C(=O)N[C@H](C(=O)N[C@@H](C)C(=O)N[C@@H](Cc1c[nH]c2ccccc12)C(=O)O)[C@@H](C)CC)C(C)C)[C@@H](C)CC [AGWQRIKAYLRREIRKRGRKAVIAW]
41.6 µM (≈ 128 µg/mL)	41.6 µM (≈ 128 µg/mL)	5.2 µM (≈ 16 µg/mL)	10.4 µM (≈ 32 µg/mL)	–	–	–	–	–	CC[C@H](C)[C@H](NC(=O)[C@H](Cc1cnc[nH]1)NC(=O)[C@H](CCCCN)NC(=O)CNC(=O)[C@@H](NC(=O)[C@H](CO)NC(=O)[C@H](Cc1ccccc1)NC(=O)[C@H](CC(C)C)NC(=O)CNC(=O)CNC(=O)[C@@H](NC(=O)[C@@H](NC(=O)[C@H](Cc1cnc[nH]1)NC(=O)[C@H](Cc1cnc[nH]1)NC(=O)[C@@H](NC(=O)[C@@H](N)Cc1ccccc1)[C@@H](C)CC)[C@@H](C)CC)[C@@H](C)CC)C(C)C)C(=O)N[C@@H](Cc1cnc[nH]1)C(=O)N[C@@H](CCCN=C(N)N)C(=O)N[C@@H](CC(C)C)C(=O)N[C@H](C(=O)N[C@@H](CCCN=C(N)N)C(=O)N[C@@H](CCCN=C(N)N)C(=O)N[C@@H](CCCN=C(N)N)C(=O)N[C@@H](CCCN=C(N)N)C(=O)N[C@@H](CCCN=C(N)N)C(=O)O)[C@@H](C)CC [FIHHIIGGLFSVGKHIHRLIRRRRR]
